# From US20230270721A1, “INHIBITION OF BAX-MEDIATED CELL DEATH BY ELTROMBOPAG” (Albert Einstein College of Medicine, priority 2020, published 2023)
# What was measured:
# BAX-4C R134E R145E = biological target: T1, BAX-4C R134E R145E (Homo sapiens, UniProt Q07812, C126S/C62S/R134E/R145E/S4C); assay: Microscale thermophoresis (MST) direct binding, double mutant; details: double mutant versus wild type BAX-4C
# T1 construct: Human full-length (1-192) wild-type BAX (Q07812); made in house; host or cells: E. coli BL21 (DE3) CodonPlus (DE3)-RIPL
# T1 sequence (Q07812 whole entry S4C/C62S/C126S/R134E/R145E): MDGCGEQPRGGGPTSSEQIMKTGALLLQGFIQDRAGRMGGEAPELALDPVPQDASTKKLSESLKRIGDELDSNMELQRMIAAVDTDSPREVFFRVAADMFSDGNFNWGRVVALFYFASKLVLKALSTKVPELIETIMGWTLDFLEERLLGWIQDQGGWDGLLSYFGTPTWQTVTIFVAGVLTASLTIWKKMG
# Protocol: Recombinant BAX C62S-C126S-S5C (4C), previously established for evaluating BAX (Garner, T.P., et al. Nat Chem Biol 15, 322-330 (2019)) binding compounds with MST, or BAX C62S-C126S-S5C-R134E-R145E (R134E-R145E-4C) was labeled at cysteine using the Monolith Protein Labeling Kit Red Maleimide (NanoTemper Technologies) according to the instructions of the manufacturer (Garner, T.P., et al. Nat Chem Biol 15, 322-330 (2019)). Briefly, 10 µM protein was incubated with 0.9 equivalents of dye in MST buffer (100 mM potassium phosphate, pH 7.4, 150 mM NaCI) in the dark at room temperature (22-25° C.) for 1 hr. Unreacted dye was quenched using 5 mM DTT and removed using the manufacturer-provided buffer exchange column. […] Samples were loaded into standard glass capillaries (Monolith NT.155 Capillaries) and analyzed by MST using a Monolith NT.115 Blue/Red, LED power and IR laser power of 80%. Fraction bound and error was generated by NanoTemper software (MO.Affinity Analysis), and KD values were determined using GraphPad Prism nonlinear fit four-parameter agonist versus response with restraints for 0 and 1 fraction bound.
# With this known, the EO docking poses were reevaluated, and the top pose featuring an ionic interaction between the EO-carboxylate and sidechain of R145 was analyzed (FIGS. 2E, 2F, and 2G). […]
# BAX [1] = biological target: T2, BAX (Homo sapiens, UniProt Q07812); assay: BAX conformation change assay using anti-6A7 immunoprecipitation; assay type: biochemical; details: BAX 10 µM, 4 equivalents BIM-BH3, 5 or 10 equivalents EO
# T2 construct: Human full-length (1-192) wild-type BAX (Q07812); made in house; host or cells: E. coli BL21 (DE3) CodonPlus (DE3)-RIPL
# T2 sequence (Q07812 whole entry): as the sequence (Q07812 whole entry S4C/C62S/C126S/R134E/R145E) above, with C4S, S62C, S126C, E134R, E145R counted along it
# Protocol: Exposure of the 6A7 epitope of BAX was assessed by immunoprecipitation with a 6A7-domain-specific antibody purchased from Santa Cruz (SC-23959). Protein G beads (50 µL, Santa Cruz) were washed three times with 3% BSA in PBS and incubated with 15 µL 6A7 antibody at 4° C. for 1 hr. Recombinant full-length BAX (10 µM) was incubated with 4 equivalents of BIM-BH3 peptide alone and in the presence of 5 or 10 equivalents of EO for 15 min at room temperature. Incubation of full-length recombinant BAX with 0.1% Triton X served as a positive control for exposure of the 6A7 epitope. After incubation, 10 µL of each reaction was transferred to the protein G beads pre-loaded with the anti-6A7 antibody, and 1 µL was reserved as a loading control. After 90 minutes of incubation at 4° C. beads were collected and washed three times with […] of 3% BSA in PBS and solubilized with 25 µL LDS/DTT loading buffer. Samples were resolved by SDS-PAGE electrophoresis and western blot analysis with an anti-BAX yth-2D2 antibody (Invitrogen).
# Prior to permeabilizing membranes, activated BAX must first translocate to the membrane (Lovell, J. F. et al. Cell 135, 1074-1084, (2008)). To explore this earlier step in BAX activation, an NBD-fluorescence-based translocation assay was used. […]
# BAX in BAK KO MEFs = biological target: T3, BAX in BAK KO MEFs (Mus musculus, UniProt Q07813); assay: Cellular Thermal Shift Assay (CETSA); assay type: cell-based; details: 10 pM EO, 2 hours
# T3 construct: endogenous in cells; host or cells: BAK KO mouse embryonic fibroblasts
# T3 sequence (Q07813 whole entry): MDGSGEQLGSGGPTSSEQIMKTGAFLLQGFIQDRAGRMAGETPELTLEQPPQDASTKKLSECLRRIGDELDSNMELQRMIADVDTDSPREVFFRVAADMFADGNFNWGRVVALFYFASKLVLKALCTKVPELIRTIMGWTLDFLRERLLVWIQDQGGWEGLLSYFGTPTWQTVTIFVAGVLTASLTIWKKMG
# Protocol: BAK KO MEFs were seeded in a 10 cm dish for 18-24 hours or until approximately 80% confluent. The media was removed and replaced with media lacking FBS, and cells were treated with 10 pM EO as a 10X stock in H2O or vehicle for 2 hours. The media was then removed, and cells were harvested using a cell scraper and washed twice with PBS. Cells were then resuspended in PBS to 6×10^6 cells/mL, and […] was transferred to PCR tubes. Cells were then heated in a Biorad C1000 Touch Thermal Cycler for 3 minutes using a temperature gradient (50, 52.1, 55.4, 59.4, 64.9, 69.2, 72.1, and 74° C.). Cells remaining at room temperature (25° C.) served as a control. All cells were lysed by three cycles of freeze-thawing using liquid nitrogen. Samples were then centrifuged at 2×10^4 g for 15 minutes. The supernatants were collected and resolved by SDS-PAGE with an N-terminal BAX antibody (Cell Signaling, 2772S). Samples were analyzed and quantified using a Li-Cor Odyssey Clx and normalized to 25° C. (100%) and 74° C.(0%).
# (§1) To confirm direct engagement of BAX, Cellular Thermal Shift Assay (CETSA) was performed in BAK KO MEFs.
# BAX [2] = biological target: T2, BAX; assay: Recombinant BAX TM (Tycho NT.6); assay type: binding; details: 1:10 BAX:EO
# Protocol: Purified recombinant BAX ([…]) was combined with DMSO or EO (1:10 BAX:EO) and loaded into Tycho NT.6 (NanoTemper Technologies) capillaries. First derivative (330/350 nm) melting point curves were generated automatically using the Tycho NT.6 (NanoTemper Technologies). Data was exported and to GraphPad PRISM software for analysis and visualization.
# as §1
# [3] = cited from earlier work
compound,measurement,setting,value
"CC1=NN(c2ccc(C)c(C)c2)C(=O)/C1=N\Nc1cccc(-c2cccc(C(=O)O)c2)c1O [EO, eltrombopag]",affinity as determined by MST,BAX-4C R134E R145E,markedly reduced affinity
same,BIM-BH3 induced 6A7 epitope exposure,BAX [1],inhibited
same,lowering of BAX TM (CETSA),BAX in BAK KO MEFs,9 °C
same,change in TM of recombinant BAX,BAX [2],comparable reduction in TM
same,time of peak concentration,[3]; after oral administration,2 to 6 h
same,oral bioavailability,"[3]; in vivo, po",excellent oral bioavailability
same,half-life,[3]; oral administration,21 to 32 h
